Test results taken from patent US4613666A, “Neplanocin A derivatives” (Toyo Jozo Kabushiki Kaisha, priority 1980, dated 1986).
Values after ≈ are worked out from the molar mass of the structure shown.

Experiments:
[1] = test system: L 5178 Y cells; assay: growth-inhibitory activity on mouse lymphoma L 5178 Y cells (MIC); format: cell-based; details: 5×10^4 /ml, Fischer's medium with 10% bovine serum, 37° C., 22 hours, phenol red color change, read-out: MIC (minimum inhibitory concentration on cell growth)
Method: The growth-inhibitory activities of compound [I] of the present invention on L 5178 Y cells are shown below. (1) Test method:
A test sample (0.3 ml) dissolved in a medium [bovine serum (10%) in Fischer's medium] is added to a mouse lymphoma L 5178 Y cells suspension (2.7 ml, 5×10^4 /ml cells), and the mixture is incubated at 37° C. for 22 hours. Cell-growth is observed by checking the color change of phenol red in the medium. The minimum inhibitory concentration (MIC) of the substance on cell growth is defined by observing apparent growth inhibition as compared with that of control.

[2] = earlier applications cited; cited from earlier work
[3] = test system: plant pathogenic fungi; details: earlier applications cited; cited from earlier work

Compound | MIC [1] | antitumor activity [2] | inhibitory action for plant pathogenic fungi [3]
[N-]=[N+]=N[C@H]1[C@H](O)C(CO)=C[C@H]1n1cnc2c(N)ncnc21 [R1=H, R4=N3, R5=H, R6=H, 2'-(R)-azide-2'-deoxyneplanocin A] | 100 µg/mL (≈ 347 µM) | – | –
Nc1ncnc2c1ncn2[C@@H]1C=C(CO)[C@@H](O)[C@@H]1Br [R1=H, R4=Br, R5=H, R6=H, 2'-(R)-bromo-2'-deoxy neplanocin A] | 4 µg/mL (≈ 12.3 µM) | – | –
Nc1ncnc2c1ncn2[C@@H]1C=C(CO)[C@@H](O)[C@@H]1N [R1=H, R4=NH2, R5=H, R6=H, 2'-(R)-amino-2'-deoxy neplanocin A acetate] | 4 µg/mL | – | –
Nc1ncnc2c1ncn2[C@@H]1C=C(CO)[C@@H](O)[C@@H]1I [R1=H, R4=I, R5=H, R6=H, 2'-(R)-iodo-2'-deoxy neplanocin A] | 4 µg/mL (≈ 10.7 µM) | – | –
O=C(Nc1ncnc2c1ncn2[C@@H]1C=C(COC(=O)c2ccccc2)[C@@H](O)[C@H]1O)c1ccccc1 [N^6,5'-Odibenzoyl neplanocin A, N^6,5'-O-dibenzoyl neplanocin A] | 0.16 µg/mL (≈ 0.339 µM) | – | –
O=C(OCC1=C[C@@H](n2cnc3c(N(C(=O)c4ccccc4)C(=O)c4ccccc4)ncnc32)[C@H](O)[C@@H]1O)c1ccccc1 [N^6,N^6,5'-Otribenzoyl neplanocin A, N^6,N^6 5'-O-tribenzoyl neplanocin A] | 0.16 µg/mL (≈ 0.278 µM) | – | –
CC(=O)OCC1=C[C@@H](n2cnc3c(N)ncnc32)[C@H](OC(C)=O)[C@@H]1OC(C)=O [2',3',5'-Otriacetyl nephlanocin A, 2',3',5'-O-triacetyl neplanocin A] | 0.8 µg/mL (≈ 2.05 µM) | – | –
Nc1ncnc2c1ncn2[C@@H]1C=C(CO)[C@H]2OC(c3ccccc3)O[C@H]21 (some centres unmarked) [2',3'-Obenzylidene neplanocin A, 2',3'-O-benzylidene neplanocin A] | 4 µg/mL (≈ 11.4 µM) | – | –
Nc1ncnc2c1ncn2[C@@H]1C=C(CO)[C@@H](O)[C@@H]1Cl [R1=H, R4=Cl, R5=H, R6=H, 2'-(R)-chloro-2'-deoxy neplanocin A] | 20 µg/mL (≈ 71 µM) | – | –
Nc1ncnc2c1ncn2[C@@H]1C=C(CO)[C@@H](O)[C@H]1O [Neplanocin A] | – | antitumor activity | inhibitory action for plant pathogenic fungi
Nc1ncnc2c1ncn2[C@@H]1C=C(CO)[C@@H](O)C1 [R1=H, R4=H, R5=H, R6=H, 2'-deoxy neplanocin A] | 4 µg/mL (≈ 16.2 µM) | – | –
CC(=O)OCC1=C[C@@H](n2cnc3c(N)ncnc32)[C@@H](Cl)[C@@H]1OC(C)=O [R1=H, R4=Cl, R5=Ac, R6=Ac, 2'-(R)-chloro-2'-deoxy-3 '-O,5'-O-diacetyl neplanocin A] | 100 µg/mL (≈ 273 µM) | – | –
O=C(Nc1ncnc2c1ncn2[C@@H]1C=C(CO)[C@@H](O)[C@@H]1I)c1ccccc1 [R1=COPh, R4=I, R5=H, R6=H, N^6-benzoyl-2'-(R)-iodo-2'-deoxy neplanocin A] | 100 µg/mL (≈ 210 µM) | – | –
